Results: publication PMC9140012, “Epigenetic-Like Stimulation of Receptor Expression in SSTR2 Transfected HEK293 Cells as a New Therapeutic Strategy” (Cancers, 2022)
pIC50: −log10 of the molar value. Structures can show the parent of a compound that is named as a salt. Where two headings read alike, the source gives them in different places.

How the values were obtained:
[1] = tested on: HEKsst2; assay: Chemotoxicity, colony formation assay (CFA), HEKsst2; format: cell-based; conditions: for pIC50: read-out: half maximum inhibitor concentrations (IC50)
Experimental: (§1) HEK293 cells were obtained from the German Resource Center for Biological Material (DSMZ, Braunschweig, Germany) and grown in Dulbecco’s modified Eagle´s medium supplemented with 10% fetal calf serum (FCS) in a humidified atmosphere containing 5% CO2. Cells were transfected with plasmid, encoding murine HA-tagged SSTR2 receptors using lipofectamine according to the manufacturing instructions (Thermofisher, Darmstadt, Germany). Stable transfectants were selected in the presence of 500 µg/mL G-418 and characterized using radioligand binding assays, Western blot analyses, surface ELISA assays and immunocytochemistry as described previously. Non-transfected HEK293 cells were maintained under equal conditions as HEKsst2 except for the addition of G-418. In the following, HEK293 cells and SSTR2 transfected HEK293 cells are termed as HEK and HEKsst2, respectively. The human prostate carcinoma cell line PC3 (ATCC®, Manassas, VA, USA) was cultured in a RPMI medium with 10% (v/v) FCS and 1% (v/v) non-essential amino acids (NEA). […] The culture medium of each cell line was renewed every 2–3 days. Via a PCR test, each cell line is proven to be free of mycoplasmas.
(§2) HEKsst2 and PC3 were plated in T75 flasks on day zero. […] Cells were incubated in DMEM (HEKsst2) or an RPMI 1640 (PC3) nutrient-deficient medium (lacking medium additives and FCS) until day three at 37 °C. For a further two days, HEKsst2 and PC3 were incubated in a full medium (with medium additives and FCS). On day five, cells were trypsinized and plated for the CFAs.
(§3) To determine the radiosensitivity and radiotoxicity, the clonogene cell survival was analyzed. Colony formation assays were performed as described earlier. […] Briefly, after detaching the treated cells, an aliquot of the cell suspension per dose point was distributed in T25 culture flasks for the colony formation test and is placed in an incubator for 7 (HEKsst2) or 10 days (PC3). To stop colony formation, the cells were fixed with ethanol 80% (v/v) followed by staining with crystal violet solution. The colony counting was carried out under a microscope (25× magnification). Colonies of more than 50 cells were scored as survivors. The plating efficiency (PE) and the survival rate (survival fraction SF) were calculated for irradiated and unirradiated cells based on the number of seeded cells.
(§4) To examine the statistical significance, an unpaired student’s t-test was used. A difference between two independent samples is significant if the probability of error p ≤ 0.05. For the statistical evaluation, MS Office Excel was used. […]

[2] = tested on: cell lines HEKsst2 and PC3; assay: IC20/IC40 of single epidrugs by colony formation assay, HEKsst2 and PC3; format: cell-based
Experimental: as §2
To determine the radiosensitivity and radiotoxicity, the clonogene cell survival was analyzed. Colony formation assays were performed as described earlier. The following steps have been done for each of the treatment procedures. Briefly, after detaching the treated cells, an aliquot of the cell suspension per dose point was distributed in T25 culture flasks for the colony formation test and is placed in an incubator for 7 (HEKsst2) or 10 days (PC3). To stop colony formation, the cells were fixed with ethanol 80% (v/v) followed by staining with crystal violet solution. The colony counting was carried out under a microscope (25× magnification). Colonies of more than 50 cells were scored as survivors. The plating efficiency (PE) and the survival rate (survival fraction SF) were calculated for irradiated and unirradiated cells based on the number of seeded cells.
To determine the Bmax values and the Kd, the GraphPad Prism 9.0 software was used. Confidence Intervals (CI) express a 95% likelihood of the nonlinear fit.

[3] = parameters: method as in PMID 25600060; conditions: fractionated external radiation; cited from earlier work
[4] = tested on: PC3; assay: Chemotoxicity, colony formation assay (CFA), PC3; format: cell-based, human; conditions: for Survival Fraction: day one to three in deficient RPMI 1640, 2 days full medium, CFA, ± SD; for pIC50: Homo sapiens, PC-3
Experimental: as §1, §2, §3, §4

[5] = tested on: relapsed or refractory neuroblastoma; parameters: method as in PMID 34270348; conditions: I-131-MIBG in combination with vorinostat, phase II; cited from earlier work
Excerpt: An overview of studies investigating the synergistic improvement of cancer therapy using HDACi in clinical trials is given by Hontecillas-Prieto et al..

[6] = tested on: Neuroendocrine Tumor Cells; parameters: method as in PMID 30796167; conditions: 5-fluorouracil in combination with decitabine or tacedinaline; cited from earlier work
[7] = tested on: PC3; conditions: PC3 compared to HEKsst2; cited from earlier work
Excerpt: The radiosensitivity expressed as SF after external X-ray irradiation is similar for the cell lines HEKsst2 and PC3 (Figure 4). […] One exception is the dose point at 0.6 Gy X-rays for not stimulated vs. stimulated PC3 cells. […] Whereas the radiosensitivity of non-stimulated HEK ...

CCCC(CCC)C(=O)O [VPA, valproic acid sodium salt]
Survival Fraction ([1]; 0.5 mM VPA, day one to three in deficient medium, 2 days full medium, CFA, ± SD): 78.7 ± 10.8% | Survival Fraction ([1]; 1.0 mM VPA, day one to three in deficient medium, 2 days full medium, CFA, ± SD): 67.5 ± 15.9% | Survival Fraction ([1]; 2.5 mM VPA, day one to three in deficient medium, 2 days full medium, CFA, ± SD): 18.5 ± 2.2% | Survival Fraction ([1]; 5.0 mM VPA, day one to three in deficient medium, 2 days full medium, CFA, ± SD): 21.0 ± 5.1% | Survival Fraction ([1]; 10 mM VPA, day one to three in deficient medium, 2 days full medium, CFA, ± SD): 53.5 ± 5.8% | Survival Fraction ([1]; 25 mM VPA, day one to three in deficient medium, 2 days full medium, CFA, ± SD): 8.0 ± 0.8% | pIC50 [1]: 2.73 | IC20 [2]: 600 µM | IC40 ([2]; VPA, value used for both HEKsst2 and PC3, CFA): 1000 µM | radiosensitization [3]: radiosensitization effect | Survival Fraction ([4]; 0.1 mM VPA): 95.6 ± 4.5% | Survival Fraction ([4]; 0.5 mM VPA): 95.6 ± 2.3% | Survival Fraction ([4]; 1.0 mM VPA): 72.6 ± 11.6% | Survival Fraction ([4]; 2.5 mM VPA): 69.4 ± 6.0% | Survival Fraction ([4]; 5.0 mM VPA): 35.1 ± 4.6% | Survival Fraction ([4]; 10 mM VPA): 24.0 ± 1.2% | Survival Fraction ([4]; 25 mM VPA): 1.2 ± 1.1% | Survival Fraction ([4]; 50 mM VPA): 1.7 ± 1.1% | pIC50 ([4]; read-out: IC50): 2.41

O=C(CCCCCCC(=O)Nc1ccccc1)NO [vorinostat]
radiation sensitizing [5]: beneficial radiation sensitizing properties

O=c1[nH]cc(F)c(=O)[nH]1 [5-fluorouracil]
radiosensitization [6]: significant effects on radiosensitization

Nc1ncn([C@H]2C[C@H](O)[C@@H](CO)O2)c(=O)n1 [5-aza-dC, 5-aza-2′-deoxycytidine]
Survival Fraction ([1]; 0.01 µM 5-aza-dC, added day one to day three in nutrient-deficient DMEM, then 2 days full medium, CFA day five, mean ± SD, three independent trials in triplicate): 97.9 ± 1.8% | Survival Fraction ([1]; 0.05 µM 5-aza-dC, day one to three in deficient medium, 2 days full medium, CFA, ± SD): 118.0 ± 31% | Survival Fraction ([1]; 0.1 µM 5-aza-dC, day one to three in deficient medium, 2 days full medium, CFA, ± SD): 83.2 ± 4.8% | Survival Fraction ([1]; 0.5 µM 5-aza-dC, day one to three in deficient medium, 2 days full medium, CFA, ± SD): 96.6 ± 13.2% | Survival Fraction ([1]; 1.0 µM 5-aza-dC, day one to three in deficient medium, 2 days full medium, CFA, ± SD): 93.7 ± 1.3% | Survival Fraction ([1]; 5.0 µM 5-aza-dC, day one to three in deficient medium, 2 days full medium, CFA, ± SD): 42.3 ± 4.8% | Survival Fraction ([1]; 10 µM 5-aza-dC, day one to three in deficient medium, 2 days full medium, CFA, ± SD): 18.6 ± 0.8% | Survival Fraction ([1]; 25 µM 5-aza-dC, day one to three in deficient medium, 2 days full medium, CFA, ± SD): 1.7 ± 0.4% | pIC50 ([1]; 5-aza-dC as single epidrug, HEKsst2, CFA): 5.41 | IC20 ([2]; 5-aza-dC, value used for both HEKsst2 and PC3, CFA): 0.25 µM | survival of 5-aza-dC treated cells [7]: lower survival | Survival Fraction ([4]; 0.01 µM 5-aza-dC): 67.1 ± 3.3% | Survival Fraction ([4]; 0.05 µM 5-aza-dC): 52.1 ± 19.0% | Survival Fraction ([4]; 0.1 µM 5-aza-dC): 69.4 ± 2.1% | Survival Fraction ([4]; 0.5 µM 5-aza-dC): 41.6 ± 1.8% | Survival Fraction ([4]; 1.0 µM 5-aza-dC): 24.9 ± 2.0% | Survival Fraction ([4]; 5.0 µM 5-aza-dC): 27.5 ± 3.2% | Survival Fraction ([4]; 10 µM 5-aza-dC): 9.4 ± 0.3% | Survival Fraction ([4]; 25 µM 5-aza-dC): 1.9 ± 0.02% | pIC50 [4]: 6.52
